Laboratory results from patent publication US11548888B2, “KRas G12C inhibitors” (Mirati Therapeutics, Inc., priority 2019, dated 2023).

Biological target: T1, KRas G12C (Homo sapiens, UniProt P01116, G12C)
T1 construct: NCI-H358 cells (ATCC CRL-5807) express KRas G12C
Experiment: Inhibition of KRas G12C-dependent cell growth: Phospho-ERK in NCI-H358 cells
Type: cell-based
Details: NCI-H358 cells expressing KRas G12C; Phospho-ERK (Thr202/Tyr204) normalized to GAPDH; 3 hours compound; 4 parameter fit
Procedure, shortened: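 Phospho-ERK read-out in KRas G12C-expressing NCI-H358 cells after 3 h compound treatment (final DMSO 0.5%), by in-cell infrared immunodetection. Signal normalized to GAPDH and to DMSO controls. 4-parameter curve fit gave IC50.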

T1 sequence (P01116 1-188 isoform P01116-2 G12C): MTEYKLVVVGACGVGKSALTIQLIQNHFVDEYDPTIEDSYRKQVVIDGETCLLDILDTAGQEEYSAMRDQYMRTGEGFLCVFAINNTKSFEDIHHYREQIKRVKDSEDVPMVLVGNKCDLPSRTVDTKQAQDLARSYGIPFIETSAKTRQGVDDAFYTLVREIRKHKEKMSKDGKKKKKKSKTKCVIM

IC50 [µM]	Structure (SMILES)
9	COC/C=C/C(=O)N1CC[C@@H]2[C@H]1CN2c1ncnc2c(F)c(-c3cccc4ccc(F)c(Cl)c34)ncc12 [Example 259]
10	C/C=C/C(=O)N1CC[C@@H]2[C@H]1CN2c1ncnc2c(F)c(-c3cccc4ccc(F)c(Cl)c34)ncc12 [Example 260]
10	C=CC(=O)N1CC[C@@H]2[C@H]1CN2c1ncnc2c(F)c(-c3cccc4cc(OC)ccc34)ncc12 [Example 266]
0.33	C=CC(=O)N1CC[C@@H]2[C@H]1CN2c1nc(OC)nc2c(F)c(-c3cccc4ccc(F)c(Cl)c34)ncc12 [Example 267]
6.61	C=CC(=O)N1CC[C@@H]2[C@H]1CN2c1ncnc2c(F)c(-c3cccc4sccc34)ncc12 [Example 276]
0.553	C=CC(=O)N1CC[C@@H]2[C@H]1CN2c1ncnc2c(F)c(-c3cccc(Cl)c3C3CC3)ncc12 [Example 277]
10	C=CC(=O)N1CC[C@@H]2[C@H]1CN2c1ncnc2c(F)c(-c3cccc4ccsc34)ncc12 [Example 278]
2.34	C=CC(=O)N1CC[C@@H]2[C@H]1CN2c1ncnc2c(F)c(-c3c(O)ccc4ccccc34)ncc12 [Example 281]
2.43	C=CC(=O)N1CC[C@@H]2[C@H]1CN2c1ncnc2c(F)c(-c3cccc4cccc(C)c34)ncc12 [Example 283]
0.557	C=CC(=O)N1CC[C@@H]2[C@H]1CN2c1ncnc2c(F)c(-c3cccc4cccc(Cl)c34)ncc12 [Example 284]
0.782	C=CC(=O)N1CC[C@@H]2[C@H]1CN2c1ncnc2c(F)c(-c3cccc4ccc(F)c(C)c34)ncc12 [Example 285]
0.015	C=CC(=O)N1CC[C@@H]2[C@H]1CN2c1ncnc2c(F)c(-c3cc(O)cc4cccc(Cl)c34)ncc12 [Example 288, 1-((1R,5R)-6-(7-(8-chloro-3-hydroxynaphthalen-1-yl)-8-fluoropyrido[4,3-d]pyrimidin-4-yl)-2,6-diazabicyclo[3.2.0]heptan-2-yl)prop-2-en-1-one]
0.03	C#Cc1c(F)ccc2cccc(-c3ncc4c(N5C[C@@H]6[C@H]5CCN6C(=O)C=C)ncnc4c3F)c12 [Example 290, 1-((1R, 5R)-6-(7-(8-ethynyl-7-fluoronaphthalen-1-yl)-8-fluoropyrido[4,3-d]pyrimidin-4-yl)-2,6-diazabicyclo[3.2.0]heptan-2-yl)prop-2-en-1-one]
0.002	C#Cc1cccc2cc(O)cc(-c3ncc4c(N5C[C@@H]6[C@H]5CCN6C(=O)C=C)ncnc4c3F)c12 [Example 291, 1-((1R,5R)-6-(7-(8-ethynyl-3-hydroxynaphthalen-1-yl)-8-fluoropyrido[4,3-d]pyrimidin-4-yl)-2,6-diazabicyclo[3.2.0]heptan-2-yl)prop-2-en-1-one]
2.15	C#Cc1cccc2cc(Cl)cc(-c3ncc4c(N5C[C@@H]6[C@H]5CCN6C(=O)C=C)ncnc4c3F)c12 [Example 294, 1-((1R,5R)-6-(7-(3-chloro-8-ethynylnaphthalen-1-yl)-8-fluoropyrido[4,3-d]pyrimidin-4-yl)-2,6-diazabicyclo[3.2.0]heptan-2-yl)prop-2-en-1-one]
0.418	C#Cc1cccc2cncc(-c3ncc4c(N5C[C@@H]6[C@H]5CCN6C(=O)C=C)ncnc4c3F)c12 [Example 295]
10	C=CC(=O)N1CCN(c2ncnc3c(F)c(-c4cccc5cc(C)ccc45)ncc23)CC1 [Example 302, 1-(4-(8-fluoro-7-(6-methylnaphthalen-1-yl)pyrido[4,3-d]pyrimidin-4-yl)piperazin-1-yl)prop-2-en-1-one]
0.714	C=CC(=O)N1CC[C@@H]2[C@H]1CN2c1ncnc2c(F)c(-c3cccc4cccc(CC)c34)ncc12 [Example 303, 1-((1R, 5R)-6-(7-(8-ethylnaphthalen-1-yl)-8-fluoropyrido[4,3-d]pyrimidin-4-yl)-2,6-diazabicyclo[3.2.0]heptan-2-yl)prop-2-en-1-one]

The next lines start with the compound.

Structure (SMILES)	IC50 [µM]
C=CC(=O)N1CCN(c2ncnc3c(F)c(-c4cccc5cc(F)ccc45)ncc23)CC1 [Example 258]	10
O=C(/C=C/C(F)F)N1CC[C@@H]2[C@H]1CN2c1ncnc2c(F)c(-c3cccc4ccc(F)c(Cl)c34)ncc12 [Example 261]	0.486
C=CC(=O)N1CC[C@@H]2[C@H]1CN2c1nc(OC[C@@H]2CC(F)(F)CN2C)nc2c(F)c(-c3cccc4ccc(F)c(Cl)c34)ncc12 [Example 262]	0.114
O=C(/C=C/C(F)(F)F)N1CC[C@@H]2[C@H]1CN2c1ncnc2c(F)c(-c3cccc4ccc(F)c(Cl)c34)ncc12 [Example 263]	1.14
C=CC(=O)N1CC[C@@H]2[C@H]1CN2c1nc(OC[C@@H]2C[C@@H](F)CN2C)nc2c(F)c(-c3cccc4ccc(F)c(Cl)c34)ncc12 [Example 264]	0.02
C=CC(=O)N1CC[C@@H]2[C@H]1CN2c1nc(OC2COC2)nc2c(F)c(-c3cccc4ccc(F)c(Cl)c34)ncc12 [Example 265]	1.49
C=CC(=O)N1CC[C@@H]2[C@H]1CN2c1nc(OCC)nc2c(F)c(-c3cccc4ccc(F)c(Cl)c34)ncc12 [Example 268]	1.13
C=CC(=O)N1CC[C@@H]2[C@H]1CN2c1nc(N(C)C)nc2c(F)c(-c3cccc4ccc(F)c(Cl)c34)ncc12 [Example 269]	4.49
C=CC(=O)N1CC[C@@H]2[C@H]1CN2c1nc(OC(C)C)nc2c(F)c(-c3cccc4ccc(F)c(Cl)c34)ncc12 [Example 270]	3.78
C=CC(=O)N1CC[C@@H]2[C@H]1CN2c1nc(NC)nc2c(F)c(-c3cccc4ccc(F)c(Cl)c34)ncc12 [Example 271]	1.07
C=CC(=O)N1CC[C@@H]2[C@H]1CN2c1nc(OC2CC2)nc2c(F)c(-c3cccc4ccc(F)c(Cl)c34)ncc12 [Example 272]	1.47
C=CC(=O)N1CC[C@@H]2[C@H]1CN2c1nc(N2CC(N(C)C)C2)nc2c(F)c(-c3cccc4ccc(F)c(Cl)c34)ncc12 [Example 273]	0.016
C=CC(=O)N1CC[C@@H]2[C@H]1CN2c1nc(N(C)CC)nc2c(F)c(-c3cccc4ccc(F)c(Cl)c34)ncc12 [Example 274]	10
C=CC(=O)N1CC[C@@H]2[C@H]1CN2c1nc(N(CC)CC)nc2c(F)c(-c3cccc4ccc(F)c(Cl)c34)ncc12 [Example 275]	10
C=CC(=O)N1CC[C@@H]2[C@H]1[C@@H](C)N2c1ncnc2c(F)c(-c3cccc4ccc(F)c(Cl)c34)ncc12 [Example 279]	0.408
C=CC(=O)N1CC[C@@H]2[C@H]1[C@H](C)N2c1ncnc2c(F)c(-c3cccc4ccc(F)c(Cl)c34)ncc12 [Example 280]	0.09
C=CC(=O)N1CC[C@@H]2[C@H]1CN2c1nc(N)nc2c(F)c(-c3cccc4ccc(F)c(Cl)c34)ncc12 [Example 282]	0.287
C=CC(=O)N1CC[C@@H]2[C@H]1CN2c1nc(OC[C@@H]2CCCN2C)nc2c(F)c(-c3cc(O)cc4cccc(Cl)c34)ncc12 [Example 289, 1-((1R, 5R)-6-(7-(8-chloro-3-hydroxynaphthalen-1-yl)-8-fluoro-2-(((S)-1-methylpyrrolidin-2-yl)methoxy)pyrido[4,3-d]pyrimidin-4-yl)-2,6-diazabicyclo[3.2.0]heptan-2-yl)prop-2-en-1-one]	0.04
C#Cc1cccc2cc(O)cc(-c3ncc4c(N5C[C@@H]6[C@H]5CCN6C(=O)C=C)nc(OC[C@@H]5CCCN5C)nc4c3F)c12 [Example 292, 1-((1R,5R)-6-(7-(8-ethynyl-3-hydroxynaphthalen-1-yl)-8-fluoro-2-(((S)-1-methylpyrrolidin-2-yl)methoxy)pyrido[4,3-d]pyrimidin-4-yl)-2,6-diazabicyclo[3.2.0]heptan-2-yl)prop-2-en-1-one]	0.02
C#Cc1cccc2cc(O)cc(-c3ncc4c(N5C[C@@H]6[C@H]5CCN6C(=O)C=C)nc(OCC56CCCN5CCC6)nc4c3F)c12 [Example 293, 1-((1R, 5R)-6-(7-(8-ethynyl-3-hydroxynaphthalen-1-yl)-8-fluoro-2-((tetrahydro-1H-pyrrolizin-7a(5H)-yl)methoxy)pyrido[4,3-d]pyrimidin-4-yl)-2,6-diazabicyclo[3.2.0]heptan-2-yl)prop-2-en-1-one]	0.065
C#Cc1c(F)ccc2cccc(-c3ncc4c(N5C[C@@H]6[C@H]5CCN6C(=O)C=C)nc(N5CC(N(C)C)C5)nc4c3F)c12 [Example 297]	0.004
C#Cc1cccc2cccc(-c3ncc4c(N5C[C@@H]6[C@H]5CCN6C(=O)C=C)nc(N5CC(N(C)C)C5)nc4c3F)c12 [Example 298]	0.024
C#Cc1c(F)ccc2cccc(-c3ncc4c(N5C[C@@H]6[C@H]5CCN6C(=O)C(=C)F)ncnc4c3F)c12 [Example 299, 1-((1R,5R)-6-(7-(8-ethynyl-7-fluoronaphthalen-1-yl)-8-fluoropyrido[4,3-d]pyrimidin-4-yl)-2,6-diazabicyclo[3.2.0]heptan-2-yl)-2-fluoroprop-2-en-1-one]	1.33
C#Cc1c(F)ccc2cccc(-c3ncc4c(N5C[C@@H]6[C@H]5CCN6C(=O)/C=C/C(F)F)ncnc4c3F)c12 [Example 300, (E)-1-((1R,5R)-6-(7-(8-ethynyl-7-fluoronaphthalen-1-yl)-8-fluoropyrido[4,3-d]pyrimidin-4-yl)-2,6-diazabicyclo[3.2.0]heptan-2-yl)-4,4-difluorobut-2-en-1-one]	0.235
C=CC(=O)N1CCN(c2ncnc3c(F)c(-c4c[n+]([O-])cc5ccccc45)ncc23)CC1 [Example 301, 4-(4-(4-acryloylpiperazin-1-yl)-8-fluoropyrido[4,3-d]pyrimidin-7-yl)isoquinoline 2-oxide]	10
